Tests used:
[1] = system: ischemic stroke (middle cerebral artery occlusion) in rats; assay: Focal ischemia (MCAO) model of stroke; format: in vivo, rat
Protocol: A transient animal model of focal ischemia was used for these experiments. The middle cerebral artery (MCA) was surgically dissected and occluded in anesthetized rats by ligature, followed by reperfusion after a defined period (about 2 hours). Animal models transient ischemia via occlusion of the MCA (MCAO) are well-known and described in, e.g., Sicard and Fisher, Exp. & Transl. Stroke Med. (2009), vol. 1, pp. 1-7.

[2] = system: PKC in H19-7/IGF-IR cells; assay: PKC activity over time in rat H19-7/IGF-IR hippocampal cells; format: cell-based
Protocol: Cell culture. Rat hippocampal H19-7/IGF-IR cells (ATCC, Manassas, Va.) were plated onto poly-L-lysine coated plates and grown at 35° C. in DMEM/10% FCS for several days until about 50% coverage was obtained. The cells were then induced to differentiate into a neuronal phenotype by replacing the medium with 5 ml N2 medium containing 10 ng/ml basic fibroblast growth factor at 39° C. and grown in T-75 flasks at 37° C. Human SH-SY5Y neuroblastoma cells (ATCC) were cultured in 45% F12K/45% MEM/10% FCS. Mouse N2A neuroblastoma cells were cultured in DMEM/10% FCS without glutamine. Rat hippocampal neurons from 18-day-old embryonic Sprague Dawley rat brains were plated on 12- or 96-well plates coated with poly-D-lysine (Sigma-Aldrich, St. Louis, Mo.) in B-27 neurobasal medium containing 0.5 mM glutamine and 25 μM glutamate (Invitrogen, Carlsbad, Calif.) and cultured for three days in the medium without glutamate. The neuronal cells were grown under 5% CO2 in an incubator maintained at 37° C. for 14 days.
(§1) Protein kinase C assay. Rat hippocampal cells were cultured and scraped in 0.2 ml homogenization buffer (20 mM Tris-HCl, pH 7.4, 50 mM NaF, 1 μg/ml leupeptin, and 0.1 mM PMSF) and homogenized by sonication a Marsonix microprobe sonicator (5 sec, 10 W). To measure PKC, 10 μl of cell homogenate or purified PKC isozyme (purchased from Calbiochem) was incubated for 15 min at 37° C. in the presence of 10 μM histones, 4.89 mM CaCl2, 1.2 μg/μl phosphatidyl-L-serine, 0.18 μg/μl 1,2-dioctanoyl-sn-glycerol, 10 mM MgCl2, 20 mM HEPES (pH 7.4), 0.8 mM EDTA, 4 mM EGTA, 4% glycerol, 8 μg/ml aprotinin, 8 μg/ml leupeptin, and 2 mM benzamidine. […][^γ32P]ATP was added and ^32P-phosphoprotein formation was measured by adsorption onto phosphocellulose as described previously. Nelson and Alkon, J. Neurochemistry (1995), vol. 65, pp. 2350-2357. For measurements of activation by BR-101 (DCP-LA) and similar compounds. PKC activity was measured in the absence of diacylglycerol and phosphatidylserine and PKC δ, ε, η, and μ were measured in the absence of added EGTA and CaCl2, as described by Kanno et al. (J. Lipid Res. 2006, vol. 47, pp. 1146-1150). Low concentrations of Ca^2+ are used because high Ca^2+ interacts with the PKC phosphatidylserine binding site and prevents activation. For measurements of bryostatin activation, 1,2-diacylglycerol was omitted unless otherwise stated.
PKC activators that bind to the diacylglycerol binding site, including bryostatin, gnidimacrin, and phorbol esters, produce a transient activation of PKC activity, followed by a prolonged downregulation. Nelson et al., Trends in Biochem. Sci. (2009), vol. 34, pp. 136-145. This was confirmed in cultured rat hippocampal cells. Incubation of rat H19-7/IGF-IR cells with (0.04 nM and 0.2 nM) bryostatin produced a 2-fold activation that lasted 30 min, followed by a 20% downregulation that returned to baseline by 24 hours (data not shown). […] This sustained activation was only observed in primary neurons.

[3] = system: global cerebral ischemia/hypoxia in rats; assay: Global cerebral ischemia/hypoxia, spatial learning and memory (Example 12); format: in vivo, rat
Protocol: Global cerebral ischemialhypoxia was induced in male Wistar rats (225-250 g) by permanently occluding the bilateral common carotid arteries, combined with about 14 minutes of low oxygen (about 5%). […] Spatial learning (2 trials/day for 4 days) and memory (a probe test of 1 minute, 24 hours after the last trial) task was performed 9 days after the last dose. Overall, there was a significant difference between the groups (F3,255=31.856, p<0.001) and groups x trials (F21,255=1.648, p<0.05). Global cerebral ischemia impaired the spatial learning (ischemial vs. sham-operated F1,127=[…]).

PKCδ = target: T1, PKCδ (Homo sapiens, UniProt Q05655); assay: PKC isozyme specificity, PKCδ; format: biochemical; conditions: about 1-100 μM; data not shown
T1 construct: purchased Calbiochem
T1 sequence (Q05655 whole entry): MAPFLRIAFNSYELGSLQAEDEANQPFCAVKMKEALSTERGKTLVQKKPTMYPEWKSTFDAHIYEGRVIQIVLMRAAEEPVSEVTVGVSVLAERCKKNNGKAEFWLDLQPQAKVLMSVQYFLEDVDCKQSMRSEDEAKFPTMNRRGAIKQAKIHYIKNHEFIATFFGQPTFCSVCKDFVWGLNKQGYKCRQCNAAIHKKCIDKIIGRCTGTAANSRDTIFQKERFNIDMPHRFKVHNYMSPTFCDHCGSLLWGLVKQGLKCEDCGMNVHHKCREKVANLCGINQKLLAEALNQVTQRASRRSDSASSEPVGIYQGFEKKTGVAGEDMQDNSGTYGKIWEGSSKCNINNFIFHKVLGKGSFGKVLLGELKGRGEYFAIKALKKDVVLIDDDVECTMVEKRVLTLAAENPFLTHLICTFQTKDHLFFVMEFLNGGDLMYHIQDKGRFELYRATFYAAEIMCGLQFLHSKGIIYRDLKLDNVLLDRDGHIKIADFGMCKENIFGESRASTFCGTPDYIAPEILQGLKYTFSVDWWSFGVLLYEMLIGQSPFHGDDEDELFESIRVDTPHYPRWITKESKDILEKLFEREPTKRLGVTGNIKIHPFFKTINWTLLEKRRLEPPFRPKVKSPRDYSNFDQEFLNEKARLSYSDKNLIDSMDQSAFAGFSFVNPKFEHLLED
Protocol: as §1, with “Low concentrations of Ca^2+ are used because high Ca^2+ interacts with the PKC phosphatidylserine binding site and prevents activation. For measurements of bryostatin activation, 1,2-diacylglycerol was omitted unless otherwise stated.” left out
(§2) To determine their PKC isozyme specificity, fatty acid derivatives were preincubated with purified PKC for five minutes and the PKC activity was measured radiometrically.

PKCγ = target: T2, PKCγ (Homo sapiens, UniProt P05129); assay: PKC isozyme specificity, PKCγ; format: biochemical; conditions: 50-100 μM; data not shown
T2 construct: purchased Calbiochem
Protocol: as §1, with “Low concentrations of Ca^2+ are used because high Ca^2+ interacts with the PKC phosphatidylserine binding site and prevents activation. For measurements of bryostatin activation, 1,2-diacylglycerol was omitted unless otherwise stated.” left out
as §2

[4] = rTPA at 2 hours followed 6 hours later with bryostatin-1, vs rTPA alone

SMILES: CCC/C=C/C=C/C(=O)O[C@H]1/C(=C/C(=O)OC)C[C@H]2C[C@H]([C@@H](C)O)OC(=O)C[C@H](O)C[C@@H]3C[C@H](OC(C)=O)C(C)(C)[C@](O)(C[C@@H]4C/C(=C/C(=O)OC)C[C@H](/C=C/C(C)(C)[C@]1(O)O2)O4)O3 [Bryostatin-1, bryostatin-1]
- brain edema ([1]; bryostatin-1 2 hours after stroke, rTPA 6 hours later, vs rTPA alone): significantly reduced
- reduction of assayed hemoglobin in the cortex and striatum ([1]; bryostatin-1 2 hours after stroke, rTPA 6 hours later, vs rTPA at 6 hours alone): 50%
- mortality 24 hours later ([1]; rTPA 6 hours after the stroke, followed 2 hours later with bryostatin-1, rats): 0%
- uptake of Evans Blue dye in ipsilateral and contralateral cortices (BBB permeability) [1, 4]: significantly reduced
- uptake of NaF in ipsilateral and contralateral cortices [1, 4]: reduced
- PKC downregulation following activation ([2]; 0.04 nM and 0.2 nM): 20%
- duration of PKC activation ([2]; 0.04 nM and 0.2 nM): 30 min
- time of return of PKC to baseline ([2]; 0.04 nM and 0.2 nM): ≤ 24 h
- PKC activation ([2]; 0.04 nM and 0.2 nM, H19-7/IGF-IR cells): 2 fold
- PKC activity at 8 hours (downregulation) ([2]; treated cells, 8 hours, data not shown): at or near the baseline
- memory retention (target quadrant preference) after ischemia ([3]; 15 μg/m^2, ischemic rats): effectively restored memory retention
- spatial learning, Bryostatin-1 alone vs sham-operated ([3]; 15 μg/m^2, non-ischemic rats): did not affect the learning
- target quadrant preference, Bryostatin-1 alone vs sham-operated ([3]; 15 μg/m^2, non-ischemic rats): no significant effects
- spatial learning impairment after ischemia ([3]; 15 μg/m^2 tail vein, 2 doses/week, 10 doses, start about 24 hours after event, tested 9 days after last dose): restored

SMILES: CCCCCC1CC1CC1CC1CCCCCCCC(=O)O (stereo not shown) [BR-101, 2-[(2-pentylcyclopropyl)methyl]cyclopropaneoctanoic acid]
- effect on PKCδ (PKCδ): partially inhibited
- effect on PKCγ (PKCγ): activated

Reference: patent US9889183B2, “PKC activators and anticoagulant in regimen for treating stroke” (BLANCHETTE ROCKEFELLER NEUROSCIENCES INSTITUTE, priority 2010, dated 2018)
